Results from article PMC7070898 (Clinical and Translational Science, 2019).

Test: Safety and tolerability
[1] = MAD 25 mg once daily 14 days, n = 9
[2] = MAD 75 mg once daily 14 days, n = 9
[3] = MAD 200 mg once daily 14 days, n = 9

C=CC(=O)N1CCC(CNc2ncnc(N)c2-c2ccc(Oc3ccccc3)cc2)CC1 [evobrutinib]
TEAE: Abdominal discomfort [1]: 1 (11.1) (1) n (%), (number of events)
TEAE: Abdominal pain [1]: 0 (0.0) n (%), (number of events)
TEAE: Application site irritation [1]: 0 (0.0) n (%), (number of events)
TEAE: Complex regional pain [1]: 1 (11.1) (1) n (%), (number of events)
TEAE: Constipation [1]: 0 (0.0) n (%), (number of events)
TEAE: Dry throat [1]: 0 (0.0) n (%), (number of events)
TEAE: Excoriation [1]: 1 (11.1) (1) n (%), (number of events)
TEAE: Fatigue [1]: 0 (0.0) n (%), (number of events)
TEAE: Headache [1]: 1 (11.1) (1) n (%), (number of events)
TEAE: Muscle spasms [1]: 0 (0.0) n (%), (number of events)
TEAE: Muscle strain [1]: 1 (11.1) (1) n (%), (number of events)
TEAE: Nausea [1]: 0 (0.0) n (%), (number of events)
TEAE: Overall total [1]: 3 (33.3) (6) n (%), (number of events)
TEAE: Rhinorrhea [1]: 1 (11.1) (1) n (%), (number of events)
TEAE: Sneezing [1]: 0 (0.0) n (%), (number of events)
TEAE: Toothache [1]: 0 (0.0) n (%), (number of events)
TEAE: URTI [1]: 0 (0.0) n (%), (number of events)
TEAE: Abdominal discomfort [2]: 0 (0.0) n (%), (number of events)
TEAE: Abdominal pain [2]: 1 (11.1) (2) n (%), (number of events)
TEAE: Application site irritation [2]: 1 (11.1) (1) n (%), (number of events)
TEAE: Complex regional pain [2]: 0 (0.0) n (%), (number of events)
TEAE: Constipation [2]: 1 (11.1) (1) n (%), (number of events)
TEAE: Dry throat [2]: 1 (11.1) (1) n (%), (number of events)
TEAE: Excoriation [2]: 0 (0.0) n (%), (number of events)
TEAE: Fatigue [2]: 2 (22.2) (2) n (%), (number of events)
TEAE: Headache [2]: 2 (22.2) (2) n (%), (number of events)
TEAE: Muscle spasms [2]: 1 (11.1) (1) n (%), (number of events)
TEAE: Muscle strain [2]: 0 (0.0) n (%), (number of events)
TEAE: Nausea [2]: 1 (11.1) (2) n (%), (number of events)
TEAE: Overall total [2]: 7 (77.8) (14) n (%), (number of events)
TEAE: Rhinorrhea [2]: 0 (0.0) n (%), (number of events)
TEAE: Sneezing [2]: 1 (11.1) (1) n (%), (number of events)
TEAE: Toothache [2]: 0 (0.0) n (%), (number of events)
TEAE: URTI [2]: 1 (11.1) (1) n (%), (number of events)
TEAE: Abdominal discomfort [3]: 0 (0.0) n (%), (number of events)
TEAE: Abdominal pain [3]: 0 (0.0) n (%), (number of events)
TEAE: Application site irritation [3]: 1 (11.1) (1) n (%), (number of events)
TEAE: Complex regional pain [3]: 0 (0.0) n (%), (number of events)
TEAE: Constipation [3]: 0 (0.0) n (%), (number of events)
TEAE: Dry throat [3]: 0 (0.0) n (%), (number of events)
TEAE: Excoriation [3]: 0 (0.0) n (%), (number of events)
TEAE: Fatigue [3]: 0 (0.0) n (%), (number of events)
TEAE: Headache [3]: 0 (0.0) n (%), (number of events)
TEAE: Muscle spasms [3]: 0 (0.0) n (%), (number of events)
TEAE: Muscle strain [3]: 0 (0.0) n (%), (number of events)
TEAE: Nausea [3]: 0 (0.0) n (%), (number of events)
TEAE: Overall total [3]: 3 (33.3) (3) n (%), (number of events)
TEAE: Rhinorrhea [3]: 0 (0.0) n (%), (number of events)
TEAE: Sneezing [3]: 0 (0.0) n (%), (number of events)
TEAE: Toothache [3]: 1 (11.1) (1) n (%), (number of events)
TEAE: URTI [3]: 1 (11.1) (1) n (%), (number of events)
TEAE: Abdominal discomfort (MAD pooled active, n = 27): 1 (3.7) (1) n (%), (number of events)
TEAE: Abdominal pain (MAD pooled active, n = 27): 1 (3.7) (2) n (%), (number of events)
TEAE: Application site irritation (MAD pooled active, n = 27): 2 (7.4) (2) n (%), (number of events)
TEAE: Complex regional pain (MAD pooled active, n = 27): 1 (3.7) (1) n (%), (number of events)
TEAE: Constipation (MAD pooled active, n = 27): 1 (3.7) (1) n (%), (number of events)
TEAE: Dry throat (MAD pooled active, n = 27): 1 (3.7) (1) n (%), (number of events)
TEAE: Excoriation (MAD pooled active, n = 27): 1 (3.7) (1) n (%), (number of events)
TEAE: Fatigue (MAD pooled active, n = 27): 2 (7.4) (2) n (%), (number of events)
TEAE: Headache (MAD pooled active, n = 27): 3 (11.1) (3) n (%), (number of events)
TEAE: Muscle spasms (MAD pooled active, n = 27): 1 (3.7) (1) n (%), (number of events)
TEAE: Muscle strain (MAD pooled active, n = 27): 1 (3.7) (1) n (%), (number of events)
TEAE: Nausea (MAD pooled active, n = 27): 1 (3.7) (2) n (%), (number of events)
TEAE: Overall total (MAD pooled active, n = 27): 13 (48.1) (23) n (%), (number of events)
TEAE: Rhinorrhea (MAD pooled active, n = 27): 1 (3.7) (1) n (%), (number of events)
TEAE: Sneezing (MAD pooled active, n = 27): 1 (3.7) (1) n (%), (number of events)
TEAE: Toothache (MAD pooled active, n = 27): 1 (3.7) (1) n (%), (number of events)
TEAE: URTI (MAD pooled active, n = 27): 2 (7.4) (2) n (%), (number of events)
TEAE: Abdominal pain (SAD 25 mg, n = 6): 0 (0.0) n (%), (number of events)
TEAE: Amylase increased (SAD 25 mg, n = 6): 0 (0.0) n (%), (number of events)
TEAE: Application site pruritus (due to ECG stickers) (SAD 25 mg, n = 6): 0 (0.0) n (%), (number of events)
TEAE: Back pain (SAD 25 mg, n = 6): 0 (0.0) n (%), (number of events)
TEAE: Contact dermatitis (SAD 25 mg, n = 6): 0 (0.0) n (%), (number of events)
TEAE: Dizziness (SAD 25 mg, n = 6): 0 (0.0) n (%), (number of events)
TEAE: Dry eye (SAD 25 mg, n = 6): 0 (0.0) n (%), (number of events)
TEAE: Dry mouth (SAD 25 mg, n = 6): 0 (0.0) n (%), (number of events)
TEAE: Dyspepsia (SAD 25 mg, n = 6): 0 (0.0) n (%), (number of events)
TEAE: Excoriation (SAD 25 mg, n = 6): 0 (0.0) n (%), (number of events)
TEAE: Headache (SAD 25 mg, n = 6): 0 (0.0) n (%), (number of events)
TEAE: Lipase increased (SAD 25 mg, n = 6): 0 (0.0) n (%), (number of events)
TEAE: Multiple injuries (SAD 25 mg, n = 6): 0 (0.0) n (%), (number of events)
TEAE: Nasal congestion (SAD 25 mg, n = 6): 0 (0.0) n (%), (number of events)
TEAE: Noncardiac chest pain (SAD 25 mg, n = 6): 0 (0.0) n (%), (number of events)
TEAE: Odynophagia (SAD 25 mg, n = 6): 0 (0.0) n (%), (number of events)
TEAE: Overall total (SAD 25 mg, n = 6): 0 (0.0) n (%), (number of events)
TEAE: URTI (SAD 25 mg, n = 6): 0 (0.0) n (%), (number of events)
TEAE: Abdominal pain (SAD 50 mg, n = 6): 0 (0.0) n (%), (number of events)
TEAE: Amylase increased (SAD 50 mg, n = 6): 0 (0.0) n (%), (number of events)
TEAE: Application site pruritus (due to ECG stickers) (SAD 50 mg, n = 6): 0 (0.0) n (%), (number of events)
TEAE: Back pain (SAD 50 mg, n = 6): 1 (16.7) (1) n (%), (number of events)
TEAE: Contact dermatitis (SAD 50 mg, n = 6): 2 (33.3) (2) n (%), (number of events)
TEAE: Dizziness (SAD 50 mg, n = 6): 0 (0.0) n (%), (number of events)
TEAE: Dry eye (SAD 50 mg, n = 6): 0 (0.0) n (%), (number of events)
TEAE: Dry mouth (SAD 50 mg, n = 6): 0 (0.0) n (%), (number of events)
TEAE: Dyspepsia (SAD 50 mg, n = 6): 1 (16.7) (1) n (%), (number of events)
TEAE: Excoriation (SAD 50 mg, n = 6): 0 (0.0) n (%), (number of events)
TEAE: Headache (SAD 50 mg, n = 6): 1 (16.7) (2) n (%), (number of events)
TEAE: Lipase increased (SAD 50 mg, n = 6): 0 (0.0) n (%), (number of events)
TEAE: Multiple injuries (SAD 50 mg, n = 6): 0 (0.0) n (%), (number of events)
TEAE: Nasal congestion (SAD 50 mg, n = 6): 0 (0.0) n (%), (number of events)
TEAE: Noncardiac chest pain (SAD 50 mg, n = 6): 0 (0.0) n (%), (number of events)
TEAE: Odynophagia (SAD 50 mg, n = 6): 0 (0.0) n (%), (number of events)
TEAE: Overall total (SAD 50 mg, n = 6): 3 (50.0) (6) n (%), (number of events)
TEAE: URTI (SAD 50 mg, n = 6): 0 (0.0) n (%), (number of events)
